According to patent US12037363B2, “Peptides for Covid-19 prevention and treatment” (SOTIRA COVID, LLC, priority 2020, dated 2024):

Columns and labels:
ACE-2 [1] = molecular target: T1, ACE-2 (Homo sapiens, UniProt Q9BYF1); assay: fluorescence polarization (FP) assay; type: binding; settings: FITC tag at C-terminal end (FIG. 3C)
[2] = test system: SARS-CoV2 in VERO E6 cells; assay: SARS-CoV2 plaque assay in VERO E6 cells; type: cell-based; settings: 25 μM pre-incubation 30 mins; compared to control; KEPTIDE1 at 1:20 dilution dose
[3] = molecular target: T2, interaction between S-glycoprotein and ACE-2 protein (Homo sapiens, UniProt Q9BYF1); assay: kit-based luminometric inhibitor screen assay; type: biochemical, SARS-CoV2
T2 construct: purchased
T2 sequence (Q9BYF1 18-740): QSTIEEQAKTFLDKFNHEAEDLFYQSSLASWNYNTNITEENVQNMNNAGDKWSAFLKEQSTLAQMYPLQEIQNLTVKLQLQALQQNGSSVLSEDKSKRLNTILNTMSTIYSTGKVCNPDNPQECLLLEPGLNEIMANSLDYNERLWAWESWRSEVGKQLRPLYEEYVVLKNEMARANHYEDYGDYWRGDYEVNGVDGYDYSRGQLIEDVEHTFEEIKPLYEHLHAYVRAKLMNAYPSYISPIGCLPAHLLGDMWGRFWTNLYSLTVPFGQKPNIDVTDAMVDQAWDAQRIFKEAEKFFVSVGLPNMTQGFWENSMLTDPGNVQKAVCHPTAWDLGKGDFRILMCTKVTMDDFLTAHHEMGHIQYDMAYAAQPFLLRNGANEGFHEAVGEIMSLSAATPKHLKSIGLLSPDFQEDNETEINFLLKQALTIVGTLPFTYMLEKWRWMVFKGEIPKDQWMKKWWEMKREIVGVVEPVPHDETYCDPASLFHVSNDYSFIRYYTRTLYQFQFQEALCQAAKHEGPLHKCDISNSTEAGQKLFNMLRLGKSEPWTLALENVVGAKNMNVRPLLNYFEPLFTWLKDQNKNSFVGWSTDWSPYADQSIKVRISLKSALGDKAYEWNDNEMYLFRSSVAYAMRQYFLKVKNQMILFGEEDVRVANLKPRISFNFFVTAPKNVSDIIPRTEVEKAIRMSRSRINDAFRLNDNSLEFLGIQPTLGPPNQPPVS
Text: A kit-based luminometric inhibitor screen assay was used to evaluate the efficacy of the biotinylated and FITC labeled ACIS in inhibiting the interaction between S-glycoprotein and ACE-2 protein.

[4] = test system: SARS-CoV2 (SARS CoV-2 USA_WA1/2020) in VERO cells; assay: Cytopathic effect (agar monolayer invasion) test of supernatants of treated VERO cells; type: cell-based
[5] = test system: SARS-CoV2 in VERO E6 cells; assay: dual immunostaining of ACIS peptide and S-glycoprotein in infected VERO cells; type: cell-based; settings: 25 μM
Method: Further confirming the profound activity of KEPTIDE COVIDs in the attenuation of viral infection, a dual immunostaining analyses with ACIS peptide (green) and S-glycoprotein (red) was performed. DAPI staining was carried out to identify big nuclei of VERO cells. […] The result was further corroborated with a quantification study that clearly indicated a strong inhibition of viral load around ACIS-treated VERO cells (***p<0.0001) (FIG. 6B).
In order to evaluate the efficacy of the KEPTIDE COVID in suppressing the secondary or chronic infection of SARS-COV2, testing was performed by dual immunostaining procedure after six hours of viral infection. […] The effect was further confirmed with a quantitative analysis (FIG. 7B).
Double Immunocytochemistry analyses was performed where […] VERO Cells were plated per well in 8-well chamber slide. Cells were starved with serum-free DMEM media for 30 mins followed by the treatment with 25 μM FITC-labeled KEPTIDE COVID. After another 30 mins, unbound KEPTIDE COVIDs were aspirated and then added SARS-CoV2 at a dose of 1-2 PFU/cell. After 2 and 6 hours of virus treatment, viral cells were removed, VERO cells were fixed with 8% PFA and kept at 4° C. for overnight. […]

[6] = molecular target: full-length ACE-2 protein (Homo sapiens, UniProt Q9BYF1); assay: BLItz label-free bio-layer interferometry assay; type: binding
full-length ACE-2 protein, sequence (Q9BYF1 18-805): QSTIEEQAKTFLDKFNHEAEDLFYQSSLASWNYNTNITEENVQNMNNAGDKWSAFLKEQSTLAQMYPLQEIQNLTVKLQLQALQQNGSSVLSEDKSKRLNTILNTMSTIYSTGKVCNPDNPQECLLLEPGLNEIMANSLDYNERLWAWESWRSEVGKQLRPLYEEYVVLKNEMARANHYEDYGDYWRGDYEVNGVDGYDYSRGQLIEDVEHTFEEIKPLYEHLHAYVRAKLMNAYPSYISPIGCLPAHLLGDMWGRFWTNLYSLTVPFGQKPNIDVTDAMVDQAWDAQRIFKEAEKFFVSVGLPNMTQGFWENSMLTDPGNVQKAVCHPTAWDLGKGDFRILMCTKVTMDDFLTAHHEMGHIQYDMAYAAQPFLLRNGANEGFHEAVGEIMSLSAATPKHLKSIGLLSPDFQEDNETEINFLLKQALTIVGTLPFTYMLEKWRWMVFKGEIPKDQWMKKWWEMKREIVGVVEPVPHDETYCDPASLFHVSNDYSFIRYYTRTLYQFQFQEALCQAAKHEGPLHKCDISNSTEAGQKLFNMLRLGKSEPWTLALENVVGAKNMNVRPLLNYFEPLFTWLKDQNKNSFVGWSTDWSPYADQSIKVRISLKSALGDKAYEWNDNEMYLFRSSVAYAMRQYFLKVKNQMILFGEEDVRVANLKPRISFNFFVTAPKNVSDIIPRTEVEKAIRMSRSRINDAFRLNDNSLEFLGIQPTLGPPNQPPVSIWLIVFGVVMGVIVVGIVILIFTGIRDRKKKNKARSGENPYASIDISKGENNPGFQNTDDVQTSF
Method: The ACIS peptide is specifically designed from the part of S-glycoprotein that is conserved only in the coronaviral family. Because of this specificity there is no possibility of any off-target effect. […] Blitz assay was used to confirm the specificity of ACIS peptide towards ACE-2 protein.
The experiment was performed based on manufacturer's instructions. Briefly, biotinylated ACIS peptide was bound to the BLItz streptavidin-linked biosensor. Different doses of ACE-2 enzyme were then charged to the ACIS peptide and then washed.
To further characterize the binding between ACIS and ACE-2, BLItz label-free bio-layer interferometry assay was performed. ACIS (0.25 μg/μL) was loaded to the sensor and titrated with different concentration of ACE-2 protein starting with the concentration as low as 10 nM. […] BLItz sensor was loaded with ACIS peptide (0.25 μg/μL) followed by titration with different concentrations of ACE-2 enzyme starting from nM range.
This can prevent or inhibit the infection of a host cell by SARS-CoV2 virus.

ACE-2 [7] = molecular target: T1, ACE-2; assay: surface plasmon resonance (SPR); settings: different concentrations of ACIS as analyte; hyperbolic binding curve

T1 sequence (Q9BYF1 18-805): as above

Row | SMILES | concentration at which peptide binds with ACE-2 (ACE-2 [1]) [nM] | increase in protection, densitometric quantification of plaque assay [2] | hillslope of the inhibition plot [3] | damage of agar monolayer (loss of CV staining) by viral supernatants of treated VERO cells [4] | inhibition of viral particles, secondary or chronic infection ([5]; 6 hours of infection) | inhibition of entry of viral particles, acute infection ([5]; two hours of SARS-CoV2 treatment (1-2 PFU)) | Kd [6] [µM] | minimum concentration with dose-dependent binding ([6]; sensor loaded with ACIS 0.25 μg/μL, titrated with ACE-2) [nM] | interaction with ACE-2 enzyme (binding curve) (ACE-2 [7])
1 | CC(C)[C@H](NC(=O)CNC(=O)[C@H](CC(N)=O)NC(=O)[C@@H](NC(=O)[C@@H]1CCCN1C(=O)[C@H](CCC(N)=O)NC(=O)[C@@H](N)Cc1ccccc1)[C@@H](C)O)C(=O)NCC(=O)N[C@@H](Cc1ccc(O)cc1)C(=O)N[C@@H](CCC(N)=O)C(=O)N1CCC[C@H]1C(=O)N[C@@H](Cc1ccc(O)cc1)C(=O)NCC(=O)N[C@@H](CCCCNC(=S)Nc1ccc2c(c1)C(=O)OC21c2ccc(O)cc2Oc2cc(O)ccc21)C(=O)O [KEPTIDE2] | 6.376 | three-fold increase in protection | −2.4 |  |  |  |  |  | 
2 | CC(C)[C@H](NC(=O)CNC(=O)[C@H](CC(N)=O)NC(=O)[C@@H](NC(=O)[C@@H]1CCCN1C(=O)[C@H](CCC(N)=O)NC(=O)[C@@H](N)Cc1ccccc1)[C@@H](C)O)C(=O)NCC(=O)N[C@@H](Cc1ccc(O)cc1)C(=O)N[C@@H](CCC(N)=O)C(=O)N1CCC[C@H]1C(=O)N[C@@H](Cc1ccc(O)cc1)C(=O)NCC(=O)O [ACIS peptide, FQPTNGVGYQPYG] |  |  |  | significant damage in agar monolayer | continued to repel viral particles significantly from VERO cells | substantially inhibit the entry of viral particles | 0.115 | 13 | strong interaction with ACE-2 enzyme
